Data on two molecules can be found in patent US20060241150A1, “P38 kinase inhibitor compositions and methods of using the same” (priority 2003, published 2006).

Entries after “also recorded” stand apart in the source; their conditions may differ. Some results are limits rather than exact numbers.

Assay [1] concerns FasL expression in HIV-infected PBMCs. Nature of the assay: FasL expression by flow cytometry in HIV-infected PBMCs. The conditions noted are these: 1 μm; PBMC's; 89.6 or pNL4-3. The format is cell-based, human. As for the experimental part:
(§1) The human CD4^+ T cell line Jurkat, or the monocyte line U937 were obtained from the American Type Culture Collection (Rockville, Md.). Cells were passaged in RPMI1640 (Gibco-BRL, MD) supplemented with 10% FBS, 2 mM L-glutamine, 100 U/ml penicillin G, and 100 μg/ml streptomycin maintained at 37° C. and 5% CO2 and verified routinely to certify that they were Mycoplasma negative. Human PBMCs were isolated from healthy HIV-seronegative donors by Ficoll-Hypaque separation (Pharmacia Biotech AB, Sweden). Peripheral blood mononuclear cells (PBMCs) from healthy adults were incubated for 2 days with 5 μg/ml phytohemagglutinin (PHA, Sigma) before the addition of 5 U/ml of human recombinant interleukin-2 (hrIL-2; R&D system, MN).
(§2) Viruses that were assayed in these studies included the pNL 4-3 (dual tropic) virus, which uses both CCR5 & CxCR4 receptors, and 89.6 (dual tropic), which uses CCR5 & CxCR4 receptors. In addition clade specific viruses were studied and these were obtained through the NIH AIDS research and Reference Reagent Program. […]
(§3) Single cell suspensions were washed in PBS (pH 7.2) containing 0.2% bovine serum albumin and 0.1% NaN3. […] Data were analyzed using the CELL Quest program (Beckton-Dickinson, CA).
A general note: A flow cytometer gives signals particle by particle.

The test system of assay [2] is Nef driven FasL expression in Jurkat cells. The experiment in a line: FasL expression in Jurkat cells transfected with pNef. In kind it is cell-based, human. An excerpt:
(§4) Constructs containing Nef were generated using overlap extension PCR at the indicated codons and were cloned into the pCDNA3.1 vector (InVitrogen, CA). The HIV-1 proviral infectious vector pNL4-3 was obtained through the NIH AIDS research and Reference Reagent Program. This vector has been rendered Nef deficient by 5′ frame shift mutation in the Nef region (He, J., Choe, et al, J. Virol. 69, 6705-6711 (1995) which is incorporated herein by reference).
(§5) Single cell suspensions were washed in PBS (pH 7.2) containing 0.2% bovine serum albumin and 0.1% NaN3. Cells were incubated with PE labeled […]-CD95L antibody (NOK-1, 0.05 μg/ml, BD Pharmingen, CA, USA) antibody for 60 minutes at 4° C. Cells were washed with PBS and fixed with 2% paraformaldehyde and resuspended in 200 μl PBS and subjected to FACS (FL2 histogram) analysis (Beckton Dickinson, CA). Data were analyzed using the CELL Quest program (Beckton-Dickinson, CA).

Assay [3] deals with FasL expression in HIV-infected Jurkat T cells. The experiment in a line: FasL expression by flow cytometry in HIV-infected Jurkat T cells. The conditions noted are these: 1 μm, 89.6 or pNL4-3. In kind it is cell-based, human. On the procedure:
as §1, §2, §3

For the next assay, the system named is Caspase 3. Nature of the assay: Caspase-3/CPP32 colorimetric protease assay on lysates of HIV-1 infected cells. In kind it is cell-based, human. The following applies: 89.6 or pNL4-3 virus; FIG. 1D. On the procedure:
(§6) FACS analysis was performed to identify cells undergoing apoptosis. Equal numbers of cells from each test group were collected for analysis. Apoptosis in experimental cells was analyzed by using an Annexin-V assay kit from PharMingen (CA). Data was analyzed by the CELL Quest program (Beckton-Dickinson, CA). Caspase 3 activity was determined using Caspase-3/CPP32 colorimetric protease assay kit according to the manufacturer's instructions (MBL, Nagoya, Japan).

The target of a further assay is p38 MAP Kinase (Homo sapiens, UniProt Q16539). The conditions noted are these: cited from earlier work.
Assay [4] deals with apoptosis of CD8+ T cells co-cultured with HIV infected macrophages. The experiment in a line: Bystander CD8+ T cell apoptosis induced by HIV infected macrophages (Annexin V). In kind it is cell-based, human. The conditions noted are these: 1 μM; latex bead stimulated 89.6 infected macrophages with autologous CD8+ T cells. As for the experimental part:
Monocyte-derived macrophages (MDM) were prepared from PBMCs obtained from healthy donors and incubated at 37° C. in polystyrene T-75 flasks for 4-10 hrs at 37° C. After the incubation the cells were washed with RPMI 1640 for 3 times to remove non-adherent cells. The adherent monocytes were detached with ethylene diamine tetra-acetic acid (EDTA) and the purity of the monocyte cell populations thus isolated was >98% as determined by FACS staining for CD14^+. The CD14^+ positive cells were incubated in 6-well plates at a density of 1×10^6 cells/ml in RPMI medium supplemented with 10% human serum.
Human PBMC's were isolated from healthy HIV-seronegative donors as described above. Purified CD8^+ T cells were isolated from PBMC by negative immunoselection using magnetic beads (Dynal, CA), for depletion of CD4^+ T cells. The puity of the isolated CD8+ T cells was determined to be by flow >99% pure. MDM were purified from freshly isolated PBMC as described above. MDM cells were cultured in 6 well plates at 0.5×10^6 cells/ml/well with 10 ng/ml M-CSF (R&D systems, MN) in RPMI 1640/10% Human serum. […] The analysis was performed on a gated CD8^+ T-cells (R1) and further CD8^+ positive cells were analyzed for the CD8^+/Annexin V positive cells (R2 population) in all experimental samples to further analysis the Apoptosis.

For the next assay, the system named is p38 MAPK. The experiment in a line: Immunoblot of p38 and phospho-p38 in Nef treated Jurkat cells. In kind it is cell-based, human. The conditions noted are these: 1 μM. On the technique in general: In western blotting, separated proteins are transferred to a membrane and probed.
Another assay has as its system NF-κB. Nature of the assay: NF-κB dependent luciferase reporter assay in Nef transfected Jurkat cells. In kind it is cell-based, human. The conditions noted are these: 1 μM; 24 hours. On the procedure:
(§7) Jurkat cells (1×10^6) were seeded onto a 60 mm culture dish (Falcon) and elctrotransfected the cells next day with NF-κB or AP-1 dependent reporter plasmid (10 μg) with pNef (10 μg), and/with or without Cpd4 (1 μM). After 24 hours, transfected cells were lysed with Reporter lysis Buffer (RLB) according to the manufacturer's instructions (Roche, USA). Luciferase activity was measured via LUMAT LB9501 (Berthold, USA). β-Gal levels were used to normalize for transfection efficiency with the chemiluminescent β-Gal reporter gene Assay kit (Roche, USA).
For orientation: Reporter assays use an easily measured gene product as a stand-in for the process of interest.

The next assay deals with AP-1. The experiment in a line: AP-1 dependent luciferase reporter assay in Nef transfected Jurkat cells. The format is cell-based, human. The following applies: 1 μM; 24 hours. As for the experimental part:
as §7

Assay [5] has as its system Nef mediated FasL expression in human PBMCs. Nature of the assay: p24gag / FasL flow cytometry in PBMCs infected with Nef positive pNL4-3 virus. The format is cell-based. The following applies: 1 μM; PBMCs infected with pNL4-3 Wt (Nef positive) virus.
Description: as §4
To prepare infectious viral stocks, HIV-1 proviral DNA (pNL4-3 Wt and pNL4-3 and Nef delta) were generated as described Muthumani, K., et al, Journal of Biol. Chem. 277: 37820-37831 (2002). The viral titers were determined by infection of the human T cell line Jurkat using serially diluted virus supernatant. […] Viral stocks were normalized for virus content by infection and titration and stocks were stored in the presence of 10% FBS in aliquots at −80° C. until their use.
as §5

For the next assay, the system named is c-Jun. The experiment in a line: Immunoblot of c-Jun in nuclear extracts of Nef treated cells. The format is cell-based, human. The conditions noted are these: 1 μM. As for the experimental part: Experimental cells were washed with ice-cold PBS, and the cells were lysed in protein lysis buffer (20 mM Tris (pH7.4), 150 mM NaCl, 1 mM EDTA, 1 mMEGTA, 1% triton, 2.5 mM sodium pyrophosphate, 1 mM […]-glycerolphasphate, 1 mM Na3Vp4, 1 μM/ml leupeptin and 1 mM phenyl methyl-sulfonyl fluoride). After a brief sonication, the lysates were clarified by centrifugation at 10,000 rpm and protein content was measured by the Bradford method (Bio-Rad, CA). Nuclear extracts were prepared using NE-PER nuclear and cytoplasmic extraction reagents (Pierce, USA) and the protein concentration of the nuclear extract was determined by BCA-200 protein assay kit (Pierce, USA) assayed following the manufacturer's instructions.
For Western blot analysis 50 μg of protein per lane was loaded onto acrylamide gels and separated by 12% SDS-PAGE and blotted to PVDF tmnsfer membrane. Immunoblot was carried out using the primary antibody (c-Jun, Phospho-p38 MAP Kinase (Thr180/Tyr182); Cell Signaling, MA, USA) and detected with secondary HRP-conjugated anti-rabbit IgG using Amersham ECL system. Further, the membrane was washed thoroughly using lxWestern re-probe buffer (Geno Tech, MO) and re immunoblotted with anti-actin (Calbiochem, CA) antibody, which recognizes the actin expression in cultured and serves cells as a positive control for gene expression and as an internal standard.

Assay [6] concerns HIV-1 induced apoptosis in human PBMCs. Nature of the assay: Annexin V-FITC FACS analysis of HIV-1 induced apoptosis in infected PBMCs. The format is cell-based. The conditions noted are these: for inhibition of apoptosis induced by 4 subtype divergent primary HIV viral isolates: FIG. 1C. As for the experimental part: as §1
Viruses that were assayed in these studies included the pNL 4-3 (dual tropic) virus, which uses both CCR5 & CxCR4 receptors, and 89.6 (dual tropic), which uses CCR5 & CxCR4 receptors. In addition clade specific viruses were studied and these were obtained through the NIH AIDS research and Reference Reagent Program. For infection studies human PBMCs were isolated from normal, sero-negative donors, and infection was accomplished by incubating target cells with HIV-1 virus at a concentration of 100 TCID50/10^6 cells/ml. Culture supernatant was collected at 6, 12 and 24 hr intervals and assayed for virus production by measuring the p24 antigen released into the medium by ELISA (Coulter, FL) according to the manufacturer's instructions. Some data are presented as mean±SEM. For data presented as percent change, the base line (medium alone) value was subtracted from the value of each experimental condition as described in the legend.
as §6

Sequence of p38 MAP Kinase (Q16539 whole entry): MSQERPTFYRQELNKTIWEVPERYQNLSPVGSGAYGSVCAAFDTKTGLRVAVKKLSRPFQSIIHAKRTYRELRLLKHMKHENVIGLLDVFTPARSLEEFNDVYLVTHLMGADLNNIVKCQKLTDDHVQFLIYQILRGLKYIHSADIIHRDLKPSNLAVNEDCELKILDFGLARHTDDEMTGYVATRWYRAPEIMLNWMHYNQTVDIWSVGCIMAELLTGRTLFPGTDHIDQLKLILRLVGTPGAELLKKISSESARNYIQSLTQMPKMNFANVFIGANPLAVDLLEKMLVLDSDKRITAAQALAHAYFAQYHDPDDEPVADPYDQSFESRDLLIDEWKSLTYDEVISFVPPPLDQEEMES
Description for p38 MAPK: Experimental cells were washed with ice-cold PBS, and the cells were lysed in protein lysis buffer (20 mM Tris (pH7.4), 150 mM NaCl, 1 mM EDTA, 1 mMEGTA, 1% triton, 2.5 mM sodium pyrophosphate, 1 mM □-glycerolphasphate, 1 mM Na3Vp4, 1 μM/ml leupeptin and 1 mM phenyl methyl-sulfonyl fluoride). After a brief sonication, the lysates were clarified by centrifugation at 10,000 rpm and protein content was measured by the Bradford method (Bio-Rad, CA).
For Western blot analysis 50 μg of protein per lane was loaded onto acrylamide gels and separated by 12% SDS-PAGE and blotted to PVDF tmnsfer membrane. […] Further, the membrane was washed thoroughly using lxWestern re-probe buffer (Geno Tech, MO) and re immunoblotted with anti-actin (Calbiochem, CA) antibody, which recognizes the actin expression in cultured and serves cells as a positive control for gene expression and as an internal standard.

As for `OCCC#Cc1nc(-c2ccc(F)cc2)c(-c2ccncc2)n1CCCc1ccccc1` [Cpd4, 4-(4-Fluorophenyl)-2-(4-hydroxybutyn-1-yl)-1-(3-phenylpropyl)-5-(4-pyridyl)imidazole], the “inhibition of FasL induction” value in assay [1] and in assay [3] was “Strong inhibition of FasL induction; also recorded: severely repressed the surface expression of FasL” in each case. For the same molecule, in assay [2], the “inhibition of Nef driven induction of FasL” value is listed as “potent inhibition of Nef driven induction of FasL; also recorded: thoroughly repressed Nef-induced FasL expression; also recorded: highly suppressed; also recorded: could prevent Nef driven FasL activation”. In addition, in the assay with Caspase 3, the “inhibition of Caspase 3 activity” value is given as roughly 80%. Also, the “inhibition of p38 MAP Kinase” value at p38 MAP Kinase (at 1 μM concentrations) is given as “inhibit p38 MAP Kinase”. Besides, at p38 MAP Kinase, the “anti-p38 activity compared with SB203580” value is listed as “higher anti-p38 activity”. Further, the “blocking of bystander CD8+ T cell apoptosis” value in [4] is reported as “effectively blocked bystander apoptosis; also recorded: could prevent Nef driven apoptosis of bystander cells”. The “total levels of p38” value with p38 MAPK is recorded as “did not alter the total levels of p38”. For the same molecule, in the assay on p38 MAPK (15-min exposure), the “Nef induced phosphorylation of p38” value is recorded as “no detectable increase in the phosphorylation of p38”. Besides, the “blocking of Nef activation of NF-κB reporter” value in the assay on NF-κB is recorded as “effectively blocked this effect”. Also, the “blocking of Nef activation of AP-1 reporter” value in the assay on AP-1 is “effectively blocked this effect”. The “inhibition of Nef mediated FasL expression” value in [5] is “aborted completely; also recorded: completely inhibited”. In the assay on c-Jun, the “Nef mediated phosphorylation / activation of c-Jun” value is “decrease in the phosphorylated status of c-Jun; also recorded: can be blocked”. The “inhibition of apoptosis driven by virus (Annexin V-FITC)” value in [6] (1 μM, 89.6 or pNL4-3 virus, 4 days post infection) was “over 80%”. Moreover, the “inhibition of apoptosis induced by 4 subtype divergent primary HIV viral isolates” value in [6] (1 μM) is listed as “could inhibit apoptosis”.

One may read the inhibition as the relative decrease from the control value, in per cent. Take `C[S+]([O-])c1ccc(-c2nc(-c3ccc(F)cc3)c(-c3ccncc3)[nH]2)cc1` (stereo not drawn) [SB203580, 4-[5-(4-Fluoro-phenyl)-2-(4-methanesulfinyl-phenyl)-3H-imidazol4-yl]-pyridine, reference compound]: the “inhibition of Caspase 3 activity” value in the assay on Caspase 3 is given as roughly 50%. Also, the “inhibition of apoptosis induced by 4 subtype divergent primary HIV viral isolates” value in assay [6] (1 μM) is on record as “could inhibit apoptosis”. Further, the inhibition at 1 µM in assay [6] (Homo sapiens, PBMC, 96 h, read-out: inhibition of apoptosis driven by virus (Annexin V-FITC)) is greater than 50%.
